Assay results from US20250099420A1, “SMALL MOLECULE MODULATORS OF GPR139 COMPLEX” (University of Florida Research Foundation, Incorporated, priority 2022, published 2025).
pEC50: −log10 of the molar value. Where two headings read alike, the source gives them in different places.

Assays:
parental HEK cells = assay: HEK parental Agonist Counterscreen Assay (non-transfected cells); type: cell-based; conditions: for Averaged Max % Response (±St. Dev.): activity relative to known control
Excerpt: The high control for the agonist counterscreen was Forskolin not acetylcholine.

GPR139 = molecular target: T1, GPR139 (Homo sapiens, UniProt Q6DWJ6); assay: GPR139 Agonist titration / agonist counterscreen assay (calcium detection, HEK-GPR139 cells); type: cell-based; design: expressed in transfected cells; host or cells: HEK Aequorin cells, Maxcyte transient transfection; conditions: GPR139 Agonist Activity; for Averaged Max % Response (±St. Dev.): activity relative to known control; for pEC50: read-out: EC50
T1 sequence (Q6DWJ6 1-353): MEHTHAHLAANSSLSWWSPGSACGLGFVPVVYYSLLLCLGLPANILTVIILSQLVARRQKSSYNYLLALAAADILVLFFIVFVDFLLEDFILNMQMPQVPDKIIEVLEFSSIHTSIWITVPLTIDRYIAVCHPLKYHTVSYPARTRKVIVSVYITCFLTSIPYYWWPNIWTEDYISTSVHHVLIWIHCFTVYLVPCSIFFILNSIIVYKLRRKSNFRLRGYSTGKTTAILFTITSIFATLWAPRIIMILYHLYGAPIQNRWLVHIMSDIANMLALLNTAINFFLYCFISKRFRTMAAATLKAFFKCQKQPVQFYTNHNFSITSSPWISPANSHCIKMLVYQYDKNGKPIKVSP
Description: GPR activity was assessed using a calcium detection assay. […] Negative control samples were treated with DMSO. […] Intracellular calcium was measured using Calcium 5.

[1] = Homo sapiens, HEK293, HEK Agonist Activity section of Table 4 (parental HEK counterscreen)
[2] = values printed in E-notation without unit
[3] = HEK Agonist Activity section of Table 4 (parental HEK counterscreen)
[4] = Homo sapiens, HEK293, HEK Agonist Activity, parental non-transfected HEK cells

| Lipophilic Efficiency (logD) (parental HEK cells; HEK Agonist Activity section) | Lipophilic Efficiency (logP) (parental HEK cells; HEK Agonist Activity section) | Averaged Max % Response (±St. Dev.) (GPR139) | Lipophilic Efficiency (logD) (GPR139; based on logD) | Lipophilic Efficiency (logP) (GPR139; based on logP) | Hill Slope (GPR139; fitted dose-response curve) | Efficiency Ligand (GPR139; ligand efficiency) | pEC50 (GPR139; [2]) | Efficiency Ligand (GPR139) | Hill Slope (GPR139) | Lipophilic Efficiency (logD) (GPR139) | Lipophilic Efficiency (logP) (GPR139) | pEC50 (GPR139; HEK-GPR139 cells) | Lipophilic Efficiency (logD) (parental HEK cells; HEK Agonist Activity) | Lipophilic Efficiency (logP) (parental HEK cells; HEK Agonist Activity) | Structure (SMILES) | Averaged Max % Response (±St. Dev.) (parental HEK cells; HEK Agonist Activity section) | pEC50 (parental HEK cells; [1]) | pEC50 (parental HEK cells; [3]) | Averaged Max % Response (±St. Dev.) (parental HEK cells; HEK Agonist Activity) | pEC50 (parental HEK cells; [4]) |
| --- | --- | --- | --- | --- | --- | --- | --- | --- | --- | --- | --- | --- | --- | --- | --- | --- | --- | --- | --- | --- |
| 0.71 | 0.71 | 110.88 ± 6.83% | 3.11 | 3.11 | 0.64 | 0.33 | 7.30 | – | – | – | – | – | – | – | CCc1cc(C2=C/C(=C/c3c(OC)ccc4ccccc34)C(=O)O2)cc(OC)c1OC [SR-01000551463] | 18.60 ± 9.91% | < 4.91 | – | – | – |
| 1.68 | 1.68 | 96.08 ± 11.27% | – | – | – | – | – | 0.34 | 0.88 | 2.98 | 2.98 | 6.15 | – | – | COc1cccc(COC(=O)NC(C)C2COc3ccccc3O2)c1 (stereo not shown) [SR-01000362527] | 12.25 ± 2.76% | < 4.85 | – | – | – |
| 2.49 | 2.49 | 109.51 ± 16.91% | 4.53 | 4.53 | 1.07 | 0.40 | 6.89 | – | – | – | – | – | – | – | Cc1ccc2c(c1)-c1c(cnn1CC(=O)Nc1ccccn1)CO2 [SR-01000152429] | −0.18 ± 21.55% | – | < 4.85 | – | – |
| – | – | 79.48 ± 15.63% | 4.84 | 4.84 | 1.63 | 0.48 | 7.94 | – | – | – | – | – | 1.76 | 1.76 | O=C(NNC(=O)C1CC1c1ccccc1)Nc1cccc(Cl)c1 (stereo not shown) [SR-01000202338] | – | – | – | 4.74 ± 3.91% | < 4.85 |
| 0.07 | 0.07 | 84.07 ± 18.43% | – | – | – | – | – | 0.26 | 1.72 | 1.52 | 1.52 | 6.37 | – | – | O=C(CC1C(=O)N(c2ccccc2)C(=O)N1Cc1ccc2c(c1)OCO2)Nc1ccc(Cl)cc1 (stereo not shown) [SR-01000428566] | 40.80 ± 6.00% | < 4.92 | – | – | – |
| – | – | 106.05 ± 9.09% | 4.30 | 4.27 | 0.91 | 0.43 | 7.64 | – | – | – | – | – | 1.52 | 1.48 | COc1ccccc1C(=O)NNC(=O)C(C)Oc1ccc(Cl)cc1Cl (stereo not shown) [SR-01000356020] | – | – | – | 1.37 ± 3.30% | < 4.85 |
| 1.27 | 1.27 | 83.43 ± 6.82% | – | – | – | – | – | 0.33 | 0.56 | 2.70 | 2.70 | 6.29 | – | – | O=C(CNc1nnc(CCCOc2ccc(Cl)cc2Cl)o1)Nc1nccs1 [SR-01000280669] | −0.76 ± 4.25% | < 4.85 | – | – | – |
| 2.71 | 2.62 | 98.20 ± 7.98% | 4.63 | 4.54 | 0.53 | 0.33 | 6.74 | – | – | – | – | – | – | – | CC(C)C(C)(C#N)NC(=O)CSc1nnc(Cc2cccc3ccccc23)n1N (stereo not shown) [SR-01000052065] | 8.92 ± 9.62% | – | < 4.82 | – | – |
| 2.32 | 2.31 | 96.94 ± 14.18% | 4.29 | 4.29 | 0.89 | 0.30 | 6.82 | – | – | – | – | – | – | – | Cc1ccc2c(c1)CCCN2CC(=O)N(C)c1c(N)n(Cc2ccccc2)c(=O)[nH]c1=O [SR-01000070509] | 15.75 ± 7.96% | – | < 4.84 | – | – |
| 1.84 | 1.80 | 113.87 ± 14.45% | – | – | – | – | – | 0.31 | 0.74 | 3.44 | 3.40 | 6.45 | – | – | COc1cc(C(=O)NNC(=O)C(C)Oc2ccc(Cl)cc2Cl)cc(OC)c1OC (stereo not shown) [SR-01000644888] | 30.23 ± 7.95% | < 4.85 | – | – | – |
| 1.65 | 1.64 | 89.55 ± 3.66% | – | – | – | – | – | 0.35 | 0.90 | 3.12 | 3.11 | 6.32 | – | – | O=C(Nc1ccc(-c2c[nH]cn2)cc1)C1COc2ccc(F)cc2C1 (stereo not shown) [SR-00000004710] | −8.04 ± 14.30% | < 4.85 | – | – | – |
| 2.04 | 2.04 | 93.05 ± 4.55% | – | – | – | – | – | 0.35 | 0.94 | 3.68 | 3.67 | 6.47 | – | – | O=C(CCc1nc2ccccc2s1)NNC(=O)CSc1ccccc1F [SR-01000069574] | 7.10 ± 4.83% | < 4.84 | – | – | – |
| 3.65 | 2.98 | 72.99 ± 14.39% | – | – | – | – | – | 0.34 | 0.72 | 4.84 | 4.17 | 6.04 | – | – | Cl.Cl.Nc1[nH]ncc1-c1ccc(NC(=O)[C@H](N)Cc2cccc(F)c2)cc1 [SR-00000004378] | −19.97 ± 10.80% | – | < 4.85 | – | – |
| 1.70 | 1.69 | 95.23 ± 13.49% | 3.95 | 3.94 | 1.23 | 0.32 | – | – | – | – | – | – | – | – | CCCc1ccccc1C1=CCC(NC(=O)Cn2ncc3c2-c2ccccc2CC3)=C1 [SR-01000135037] | −6.83 ± 12.52% | < 4.85 | – | – | – |
| 2.60 | 2.60 | 100.73 ± 15.83% | 4.65 | 4.65 | 0.96 | 0.36 | 6.86 | – | – | – | – | – | – | – | COc1ccc(CCNC(=O)CC(=O)NCCc2ccc(OC)cc2)cc1 [SR-01000034566] | −4.69 ± 7.66% | – | < 4.82 | – | – |
| 0.66 | 0.66 | 116.95 ± 4.02% | 3.05 | 3.05 | – | 0.33 | – | – | – | – | – | – | – | – | COCCn1c(C)c(C(=O)NC(C)CCc2ccccc2)c2nc3ccccc3nc21 (stereo not shown) [SR-01000918134] | −11.92 ± 3.45% | < 4.85 | – | – | – |
